System: GABAA receptors
Test: Influence on the binding of muscimol to GABAA receptors (rat brain)
Settings: 5 nM [3H] muscimol, cerebral rat cortex membranes
Protocol: The following tests for determining the influence of allopregnanolone, 3-α-OH-CMA and 3-β-OH-CMA on the binding of muscimol to GABAA receptors (in rats) are based on the publication of the experimental specifications of Snodgrass, S. R. (Nature, 1979, V273, p. 392-394). The corresponding disclosure is included herein as a reference and is part of the disclosure of the present application.
Membrane preparations of cerebral rat cortex material were prepared. 5 nM [^3H] muscimol was used as a reference substance and 10 μM muscimol was used to determine the nonspecific binding. The substances ([^3H] muscimol, allopregnanolone) were each incubated at the receptor for 10 minutes at a temperature of approximately 4° C. The stock solution (5×10^−2 M) of allopregnanolone was prediluted in 75% DMSO at a ratio of 1:10 and was subsequently further diluted in 25% DMSO at a ratio of 1:5. The final concentration of allopregnanolone in the test was 1×10^−10 M, 1×10^−9 M, 1×10^−8 M, 1×10^−7 M, 1×10^−6 M and 1×10^−5 M respectively. The washing steps and the determination of radioactivity were carried out as previously described under point 1.
The influence of 3-α-OH-CMA and 3-β-OH-CMA on the binding of muscimol to GABAA receptors (in rats) was determined in a similar manner to the method described previously. Instead of allopregnanolone, 3-α-OH-CMA or 3-β-OH-CMA were used.

In the case of `CC(=O)O[C@]1(C(C)=O)CC[C@H]2[C@@H]3C=C(Cl)C4=C[C@H](O)CC[C@]4(C)[C@H]3CC[C@@]21C` [3-α-OH-CMA, 3α-hydroxy-6-chloro-17α-acetoxy-4,6-pregnadien-20-one], the “increase of binding of radioactively labelled muscimol” value (“increase” below) (0.001 μM test substance) is reported as 12%.
For `CC(=O)O[C@]1(C(C)=O)CC[C@H]2[C@@H]3C=C(Cl)C4=C[C@@H](O)CC[C@]4(C)[C@H]3CC[C@@]21C` [3-β-OH-CMA, 3β-hydroxy-6-chloro-17α-acetoxy-4,6-pregnadien-20-one], the “increase” value (0.1 μM test substance) was 31%.
In the case of `CC(=O)[C@H]1CC[C@H]2[C@@H]3CC[C@H]4C[C@H](O)CC[C@]4(C)[C@H]3CC[C@]12C` [allopregnanolone, reference compound], the “increase” value (1 μM test substance) is reported as 38%.

— patent publication US20090023694A1, “Contraceptive” (GRUNENTHAL GMBH, priority 2006, published 2009)
